# According to EP0063525A1, “Dibenzazepine tetracyclic derivatives, process for their preparation and pharmaceutical compositions containing them” (CENTRE NATIONAL DE LA RECHERCHE SCIENTIFIQUE (CNRS), priority 1981, dated 1982):
# Like-named read-outs stand apart in the source and are kept apart here.
# Experiments:
# Souris [1] = test: analgesic activity, phenylbenzoquinone writhing technique; format: in vivo
# Method: Ce test consiste à rechercher une éventuelle protection vis-à-vis des crampes ou contorsions abdominales provoquées chez la Souris par injection intrapéritonéale de phénylbenzoquinone.
# Les souris sont réparties au hasard par lots de 4 dans des cristallisoirs.
# Le compose 2 a été injecté par voie intrapéritonéale, 30 minutes avant l'injection de la phénylbenzoquinone.
# Les crampes abdominales sont comptées pour chaque souris pendant 30 minutes à partir de la quinzième minute qui suit l'injection de l'agent algogène.
# rat = test: medium-term toxicity in the rat, per os, 5 weeks; settings: per os, 2, 10 et 50 mg/kg pendant 5 semaines
# Method: Cette étude a eu pour but de rechercher les effets éventuels du composé 2 sur les différents paramètres biologiques hématologi -ques et histologiques du rat après traitement per os à raison de 2,10 et 50 mg/kg pendant 5 semaines.
# Iléon de cobaye [2] = test: spasmolytic action, anti barium chloride effect; format: cell-based; settings: BaCl2 6 x 10^-2 mg/ml
# Method: (§1) Les essais ont été effectués sur l'Iléon de cobaye maintenu en survie dans une solution de Tyrode oxygénée et thermostabilisée à 37° C suivant le méthode de MAGNUS.
# (§2) L'action spasmolytique du composé 2 a été étudiée en opposition avec les propriétés spasmogènes de l'acétylcholine, du chlorure de baryum, de l'histamine et de la sérotonine.
# Ces essais ont été effectués sur douze préparations. Six ont été utilisées pour la recherche d'inhibition de la contraction ba- rytique dite curative, les six autres pour les essais dits "préventif baryum".
# La concentration de BaCl2 utilisée comme agent contracturant est de 6 x 10^-2 mg/ml.
# Souris [3] = test: tetrabenazine hypothermia; format: in vivo; settings: product i.p. 5 mg/kg 30 min before tétrabénazine 32 mg/kg i.v.
# Iléon de cobaye [4] = test: spasmolytic action, anticholinergic effect (acetylcholine contraction); format: cell-based; settings: acétylcholine 3 à 6 x 10^-5 mg/ml, six préparations; read-out: DE 50 (effet anticholinergique)
# Method: as §1, §2
# Ces essais ont été effectués sur six préparations. L'effet inhibiteur du composé 2 a été recherché à l'encontre des propriétés contracturantes de l'acétylcholine utilisée à la concentration de 3 à 6 x 10^-5 mg/ml pour une cuve de 30 ml.
# Souris [5] = test: tetrabenazine ptosis; format: in vivo; settings: product i.p. 5 mg/kg 30 min before tétrabénazine 32 mg/kg i.v.
# Iléon de cobaye [6] = test: spasmolytic action, antihistaminic effect; format: cell-based; settings: histamine 0,5 à 3 x 10^-5 mg/ml, cinq préparations; read-out: DE 50 envers le spasme provoqué par l'histamine
# Method: as §1, §2
# Ces essais ont été pratiqués sur cinq préparations. L'histamine a été utilisée à la concentration de 0,5 à 3 x 10^-5 mg/ml.
# chiens anesthésiés = test: cardiovascular toxicity in the anaesthetised dog, slow perfusion; format: in vivo, Chien; settings: in vivo, 20 mg/kg
# Method: L'étude du composé 2 a été effectuée sur 7 chiens anesthésiés à des doses allant de 4 à 20 mg/kg en perfusion lente.
# [7] = acute toxicity in the mouse, intraperitoneal; format: in vivo, Souris; settings: mouse, in vivo, ip, voie intrapéritonéale; for mortality at 48 h: read-out: Mortalité %
# Text: (§3) Les produits ont été administrés par voie intrapéritonéale à des souris femelles dont le poids variait de 18 à 30 g.
# (§4) Les animaux injectés ont été maintenus dans une salle thermostatée, nourris et abreuvés à volonté.
# (§5) La mortalité a été relevée à 1 heure, 4 heures, 24 heures et 48 heures.
# souris femelles = test: acute toxicity in the mouse, intraperitoneal; format: in vivo; settings: voie intrapéritonéale, dead mice of the group
# Text: as §3, §4, §5
# Souris [8] = test: antireserpine activity: reserpine hypothermia; format: in vivo; settings: réserpine 5 mg/kg i.p. 17 h before, product i.p. 5 mg/kg
# Procedure, shortened: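 Mice in groups of 4 given reserpine 5 mg/kg i.p.; 17 hours later rectal temperature taken by thermocouple and test substance or solvent given i.p. Temperature measured hourly for 4 hours. Reported as mean temperature changes at 1, 2, 3 and 4 hours, their 4-hour sum, and percent rise versus solvent controls.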
# [9] = 20 mg/kg/IP 30 min before phényl-benzoquinone 10 mg/kg/IP
# [10] = 50 mg/kg/IP 30 min before phényl-benzoquinone 10 mg/kg/IP
structure (smiles),measurement,setting,value
"CN(C)CCN1c2ccccc2C2ON=C(c3ccccc3)C2c2ccccc21 (stereo not drawn) [Composé 2, (β-diméthylaminoéthyl)-8 phényl-3 trihydro-3a,8, 12b (dibenzo [b,f]isoxazolo [4,5-d])azépine]",% de protection,Souris [1]; [9],70%
same,Nombre de crampes en 30 minutes,Souris [1]; [9],35
same,% de protection,Souris [1]; [10],100%
same,Nombre de crampes en 30 minutes,Souris [1]; [10],0
same,action protectrice envers le syndrome douloureux à la phénylbenzoquinone,Souris [1]; in vivo,action protectrice importante
same,paramètres biologiques hématologiques et histologiques du rat,rat,aucune modification
same,IC50,"Iléon de cobaye [2]; curative, read-out: concentration for inhibition de 50% de l'effet spasmogène, essais curatifs",1 µg/mL
same,IC50,"Iléon de cobaye [2]; Cavia porcellus, preventive, read-out: concentration for inhibition de 50% de l'effet spasmogène, essais préventifs",0.5 µg/mL
same,inhibition in vivo at 5 mg/kg,"Souris [3]; ip, 2 h, hypothermie, read-out: % de protection",3%
same,Température après tétrabénazine 30 minutes,Souris [3],"-3,2"
same,Température après tétrabénazine 60 minutes,Souris [3],"-2,6"
same,Température après tétrabénazine 90 minutes,Souris [3],"-1,3"
same,Température après tétrabénazine 120 minutes,Souris [3],"-1,3"
same,Température après tétrabénazine Total,Souris [3],"-8,3"
same,EC50,Iléon de cobaye [4],0.5 µg/mL
same,inhibition in vivo at 5 mg/kg,"Souris [5]; ip, 2 h, ptosis, read-out: % de protection",5%
same,Ptosis Total,Souris [5],"28,6"
same,Ptosis 30 minutes,Souris [5]; score 0-4 per eye,"4,8"
same,Ptosis 60 minutes,Souris [5]; score 0-4 per eye,"7,8"
same,Ptosis 90 minutes,Souris [5]; score 0-4 per eye,8
same,Ptosis 120 minutes,Souris [5]; score 0-4 per eye,8
same,EC50,Iléon de cobaye [6],~0.05 µg/mL
same,toxicité sur le système cardiovasculaire comparativement à l'imipramine,chiens anesthésiés,plus faible toxicité
same,LD50 at 48 h,"[7]; souris femelles, read-out: DL 50",95 mg/kg
same,mortality at 48 h,[7]; 10 mg/kg,0%
same,mortality at 48 h,[7]; 50 mg/kg,0%
same,mortality at 48 h,[7]; 75 mg/kg,0%
same,mortality at 48 h,[7]; 100 mg/kg,60%
same,mortality at 48 h,[7]; 200 mg/kg,100%
same,Mortalité en 1 heure,souris femelles; 10 mg/kg,0
same,Mortalité en 48 h.,souris femelles; 10 mg/kg,0
same,Mortalité en 1 heure,souris femelles; 50 mg/kg,0
same,Mortalité en 48 h.,souris femelles; 50 mg/kg,0
same,Mortalité en 1 heure,souris femelles; 75 mg/kg,0
same,Mortalité en 48 h.,souris femelles; 75 mg/kg,0
same,Mortalité en 1 heure,souris femelles; 100 mg/kg,3
same,Mortalité en 48 h.,souris femelles; 100 mg/kg,3
same,Mortalité en 1 heure,souris femelles; 200 mg/kg,4
same,Mortalité en 48 h.,souris femelles; 200 mg/kg,5
same,change in vivo at 5 mg/kg,"Souris [8]; ip, 4 h, read-out: % d'augmentation par rapport aux témoins",155%
same,variation de température T= 2h,Souris [8],"+1,6"
same,variation de température T=3h,Souris [8],"+0,7"
same,variation de température T=4h,Souris [8],"+1,4"
